According to patent US10065967B2, “Compounds that are ERK inhibitors” (Merck Sharp & Dohme Corp., priority 2013, dated 2018):

What follows are compounds tested against Active Mouse ERK2 (mERK2) (Mus musculus (Mouse), UniProt P63085) (assay: Active Mouse ERK2 (mERK2) Activity Assay (IMAP-FP)). Details: phosphorylated active mERK2 0.19 nM, 30 uM ATP, 10 point titration, read-out: ERK 2 MAPK1 Mouse IC50.
Sequence of Active Mouse ERK2 (mERK2) (P63085 whole entry): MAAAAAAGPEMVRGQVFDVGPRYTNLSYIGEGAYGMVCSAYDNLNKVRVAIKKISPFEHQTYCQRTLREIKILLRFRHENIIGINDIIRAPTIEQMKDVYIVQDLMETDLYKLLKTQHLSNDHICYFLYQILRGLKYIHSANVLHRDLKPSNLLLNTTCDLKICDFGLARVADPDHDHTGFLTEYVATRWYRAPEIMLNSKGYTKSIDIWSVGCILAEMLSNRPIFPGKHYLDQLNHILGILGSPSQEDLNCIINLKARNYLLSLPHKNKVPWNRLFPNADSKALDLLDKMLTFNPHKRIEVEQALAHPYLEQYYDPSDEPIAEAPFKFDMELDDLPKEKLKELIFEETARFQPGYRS
Type: biochemical
Description: Active Mouse ERK2 (mERK2) Activity Assay:
Activated ERK2 activity was determined in an IMAP-FP assay (Molecular Devices). Using this assay format, the potency (IC50) of each compound was determined from a 10 point (1:3 serial dilution, 3 μM starting compound concentration) titration curve using the following outlined procedure. To each well of a black Corning 384-well plate (Corning Catalog #3575), 7.5 nL of compound (3333 fold dilution in final assay volume of 25 μL) was dispensed, followed by the addition of 15 μL of kinase buffer (tween containing kinase buffer, Molecular Devices) containing […] (0.316 nM) of phosphorylated active mERK2 enzyme. Following a 15 minute compound & enzyme incubation, each reaction was initiated by the addition of 10 μL kinase buffer containing 2.45 μM ERK2 IMAP substrate peptides (2.25 μM-unlabeled peptide and 200 nM-labeled peptide, and 75 μM ATP. The final reaction in each well of 25 μL consists of 0.19 nM mERK2, 900 nM unlabeled peptide, 80 nM labeled-peptide, and 30 uM ATP. Phosphorylation reactions were allowed to proceed for 45 minutes and were immediately quenched by the addition of 60 μL IMAP detection beads (1:1000 dilutions) in IMAP binding buffer (Molecular Devices) with 24 mM NaCl. Plates were read on EnVision reader after 60 minutes binding equilibration using Fluorescence Polarization protocol (Perkin Elmer).
An IC50 of 0.4 nM was found for `Cc1cc(-c2n[nH]c3cc4[nH]c(=O)ccc4cc23)ccn1` [Example 1, 3-(2-methylpyridin-4-yl)-1,8-dihydro-7H-pyrazolo[4,3-g]quinolin-7-one] in this work.
An IC50 of 0.2 nM was found for `Cc1cc(-c2n[nH]c3cc4[nH]c(=O)c(Br)cc4cc23)ccn1` [Example 2, 6-bromo-3-(2-methylpyridin-4-yl)-1,8-dihydro-7H-pyrazolo[4,3-g]quinolin-7-one] in this work.
An IC50 of 0.2 nM was found for `Cc1cc(-c2n[nH]c3cc4[nH]c(=O)c(Cc5ccccc5)cc4cc23)ccn1` [Example 3, 6-benzyl-3-(2-methylpyridin-4-yl)-1,8-dihydro-7H-pyrazolo[4,3-g]quinolin-7-one] in this work.
